ChEMBL document CHEMBL1201862, “PubChem BioAssay data set” (2004)
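Results reflect a 48-hour exposure of cells in 96-well plates to compound at five concentrations. GI50 = concentration required for 50% inhibition of growth.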 Active and inactive are the calls of the source. No stated cut-off is given here; in the data, active = GI50 up to about 1.1 µM and inactive = higher.

Legend:
Experiment in all cases: NCI-60 cell line screen, 48 h
[1] = system: 786-0
[2] = system: A498
[3] = system: ACHN
[4] = system: HL-60
[5] = system: HT-29
[6] = system: KM-20L2
[7] = system: KM12
[8] = system: M14
[9] = system: MOLT-4
[10] = system: OVCAR-3
[11] = system: OVCAR-5
[12] = system: SF-268
[13] = system: SK-MEL-2
[14] = system: SNB-75
[15] = system: SW-620
[16] = system: UACC-257
[17] = system: SR

Measured: GI50

Cc1ccc(-c2c(N)[n+]([O-])c3ccccc3[n+]2[O-])cc1
inactive: [1] 13.5 µM | [2] > 10 µM | [3] 15.4 µM | [4] 9.95 µM | [5] 12.3 µM | [6] 15 µM | [7] 11.9 µM | [8] 12 µM | [9] 45.2 µM | [10] 16 µM | [11] 17.9 µM | [12] 16.9 µM | [13] 8.51 µM | [14] 12.2 µM | [15] 5.25 µM | [16] 7.21 µM

CCOC(=O)C(C(=O)OCC)=C1N[C@H](C(=O)OCC)CS1
inactive: [1] > 100 µM | [3] > 100 µM | [4] > 100 µM | [5] > 100 µM | [6] > 100 µM | [7] > 100 µM | [8] > 100 µM | [9] > 100 µM | [10] > 100 µM | [11] > 100 µM | [12] > 100 µM | [13] > 100 µM | [17] > 100 µM | [15] > 100 µM | [16] > 100 µM

CN(C(=N)c1ccccc1)c1ccccc1
inactive: [1] > 100 µM | [2] > 10 µM | [4] > 100 µM | [5] > 100 µM | [6] > 100 µM | [7] > 100 µM | [8] > 100 µM | [9] > 100 µM | [10] > 100 µM | [13] > 100 µM | [14] 47.6 µM | [15] > 100 µM

COC(=O)C1=CC2OC13CC1CCC3(C2=O)C1(C)C (stereo unspecified)
inactive: [1] 12.2 µM | [2] 19.1 µM | [3] 8.83 µM | [4] 6.9 µM | [5] 13.2 µM | [6] 13.3 µM | [7] 16.5 µM | [8] 5.28 µM | [9] 14 µM | [10] 5.89 µM | [11] 19 µM | [12] 10 µM | [13] 15.2 µM | [14] 7.01 µM | [15] 4.05 µM | [16] 10.4 µM

O=C(CSc1nnc(Cc2ccccc2)o1)Nc1cccc(Cl)c1
inactive: [1] 96.8 µM | [2] > 100 µM | [3] 46.9 µM | [4] > 100 µM | [5] 66.2 µM | [6] > 100 µM | [7] > 100 µM | [8] 69 µM | [9] 79.3 µM | [10] 31.9 µM | [11] > 100 µM | [12] > 100 µM | [13] 70.8 µM | [14] 25.9 µM | [15] > 100 µM | [16] > 100 µM

Cc1cc(=O)n2c3c(c4c(cc13)c(CO)cc(=O)n4C)OC2
inactive: [1] 12.6 µM | [2] 14.6 µM | [3] 9.57 µM | [5] 19.5 µM | [6] 29.9 µM | [7] 7.94 µM | [8] 20.6 µM | [10] 11.8 µM | [11] 16.5 µM | [12] 8.18 µM | [13] 7.46 µM | [14] 19.9 µM | [15] 5.71 µM | [16] 26.2 µM

Nc1ccc2ncc(Nc3ccc(Cl)c(Cl)c3)nc2c1
inactive: [1] 39.6 µM | [3] 16.9 µM | [4] 14.5 µM | [5] 14.8 µM | [6] 31.8 µM | [7] 25.9 µM | [8] 19.4 µM | [9] 17.7 µM | [10] 19.4 µM | [11] 38.5 µM | [12] 39.7 µM | [13] 26.4 µM | [14] 16 µM | [17] 57.7 µM | [15] 35.2 µM | [16] 19.4 µM

CCOC(=O)C1(c2ccccc2)CCC(=O)CC1
inactive: [1] > 100 µM | [2] > 100 µM | [3] > 100 µM | [4] > 100 µM | [5] > 100 µM | [6] > 100 µM | [7] > 100 µM | [8] > 100 µM | [9] > 100 µM | [10] > 100 µM | [11] > 100 µM | [12] > 100 µM | [13] > 100 µM | [14] > 100 µM | [15] > 100 µM | [16] > 100 µM

O=C(O)CCSC(=O)Nc1ccccc1Cl
inactive: [1] > 100 µM | [2] 60 µM | [3] > 100 µM | [5] > 100 µM | [6] > 100 µM | [7] 51.2 µM | [8] > 100 µM | [9] > 100 µM | [10] > 100 µM | [11] > 100 µM | [12] > 100 µM | [14] > 100 µM | [17] > 100 µM | [15] > 100 µM | [16] > 100 µM

CC(=O)c1c(O)ccc2c1CC(CC=O)O2 (stereo unspecified)
inactive: [1] 69.7 µM | [3] > 100 µM | [4] > 100 µM | [5] 37.2 µM | [6] > 100 µM | [7] > 100 µM | [8] 47.5 µM | [9] > 100 µM | [10] 48.5 µM | [11] > 100 µM | [12] 88.5 µM | [14] 42.1 µM | [17] > 100 µM | [15] 43.9 µM | [16] > 100 µM

COC(=O)CC(CC(=O)C(=O)OC)C(=O)OC (stereo unspecified)
inactive: [1] > 100 µM | [2] > 100 µM | [3] > 100 µM | [4] > 100 µM | [5] > 100 µM | [6] > 100 µM | [7] > 100 µM | [8] > 100 µM | [9] > 100 µM | [10] > 100 µM | [11] > 100 µM | [13] > 100 µM | [14] > 100 µM | [15] > 100 µM | [16] > 100 µM

C/C(=N\NC(=O)c1ccccc1O)c1c(O)cc(C)oc1=O
inactive: [1] > 100 µM | [2] > 100 µM | [3] 45 µM | [4] 63.2 µM | [5] > 100 µM | [6] > 100 µM | [7] > 100 µM | [8] > 100 µM | [9] 67.5 µM | [10] 41.2 µM | [11] 73.3 µM | [12] 49.4 µM | [13] > 100 µM | [14] 20.2 µM | [15] > 100 µM | [16] 60 µM

O=C(CSc1nnc(-c2ccc(/N=C\c3ccc(Cl)cc3)cc2)o1)Nc1ccccc1Cl
inactive: [1] > 100 µM | [3] > 100 µM | [4] > 100 µM | [5] > 100 µM | [6] > 100 µM | [7] > 100 µM | [8] > 100 µM | [9] > 100 µM | [12] > 100 µM | [13] > 100 µM | [14] > 100 µM | [17] > 100 µM | [15] > 100 µM | [16] 20.7 µM
